Data set [1] deals with T1, bovine CNT3 (bCNT3) (Bos taurus, UniProt F1MGR1).
T1 sequence (F1MGR1 1-699): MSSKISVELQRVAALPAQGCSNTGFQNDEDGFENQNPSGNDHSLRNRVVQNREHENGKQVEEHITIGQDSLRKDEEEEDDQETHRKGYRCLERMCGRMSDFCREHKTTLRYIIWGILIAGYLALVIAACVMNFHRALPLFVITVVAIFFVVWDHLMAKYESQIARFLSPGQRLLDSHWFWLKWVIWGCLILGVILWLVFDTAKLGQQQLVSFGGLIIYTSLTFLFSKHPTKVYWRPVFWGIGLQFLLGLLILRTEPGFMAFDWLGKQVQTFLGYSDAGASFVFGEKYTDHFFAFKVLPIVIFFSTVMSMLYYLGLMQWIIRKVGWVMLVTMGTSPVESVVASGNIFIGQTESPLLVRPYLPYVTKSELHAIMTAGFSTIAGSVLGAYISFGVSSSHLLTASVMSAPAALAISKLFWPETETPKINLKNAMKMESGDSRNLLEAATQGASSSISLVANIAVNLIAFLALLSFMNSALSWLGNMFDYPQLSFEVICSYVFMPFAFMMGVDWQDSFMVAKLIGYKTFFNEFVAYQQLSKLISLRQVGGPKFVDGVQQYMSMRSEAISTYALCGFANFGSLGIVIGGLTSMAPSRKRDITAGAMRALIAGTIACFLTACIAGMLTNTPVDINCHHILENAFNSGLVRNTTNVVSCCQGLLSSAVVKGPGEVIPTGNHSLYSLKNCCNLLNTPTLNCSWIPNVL
Kind of data set: cryo-EM structure. The class given is binding.

Data set [2] deals with T2, human concentrative nucleoside transporter 3 (hCNT3) (Homo sapiens, UniProt Q9HAS3).
T2 sequence (Q9HAS3 1-691): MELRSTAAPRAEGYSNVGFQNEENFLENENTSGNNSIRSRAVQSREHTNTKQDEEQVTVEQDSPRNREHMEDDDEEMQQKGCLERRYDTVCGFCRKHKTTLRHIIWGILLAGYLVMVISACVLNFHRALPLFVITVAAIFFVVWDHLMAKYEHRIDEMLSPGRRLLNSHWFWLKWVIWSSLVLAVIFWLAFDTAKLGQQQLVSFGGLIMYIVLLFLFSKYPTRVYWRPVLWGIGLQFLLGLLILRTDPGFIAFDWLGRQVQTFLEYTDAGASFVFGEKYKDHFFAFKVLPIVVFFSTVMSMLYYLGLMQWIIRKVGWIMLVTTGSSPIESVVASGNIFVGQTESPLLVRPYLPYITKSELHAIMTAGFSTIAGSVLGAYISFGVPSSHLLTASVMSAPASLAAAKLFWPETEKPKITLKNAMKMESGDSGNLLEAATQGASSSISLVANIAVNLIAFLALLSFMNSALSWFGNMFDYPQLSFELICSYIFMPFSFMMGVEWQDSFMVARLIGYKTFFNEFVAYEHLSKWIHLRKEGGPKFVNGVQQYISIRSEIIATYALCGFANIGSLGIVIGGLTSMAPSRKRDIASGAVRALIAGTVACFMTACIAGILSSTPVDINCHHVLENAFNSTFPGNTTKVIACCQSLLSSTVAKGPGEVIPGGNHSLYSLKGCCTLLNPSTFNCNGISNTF
Briefly: cold competition of [3H]-ribavirin uptake in oocytes. The data set is classed as cell-based.

In data set [3] the target is T1, bovine CNT3 (bCNT3). Briefly: cryo-EM structure. The class given is binding. This is another data set of the same source.
For data set [4], the target named is T2, human concentrative nucleoside transporter 3 (hCNT3). Kind of data set: cold competition of [3H]-ribavirin uptake in oocytes. The class given is cell-based. The source holds these as a separate data set.
Data set [5] shares this target. The description is as above. The data set is classed as cell-based. The source holds these as a separate data set.
The data set “cryo-EM structure” deals with the molecule itself. Kind of data set: cryo-EM structure.

Usually IC50 stands for the point on the concentration scale where inhibition reaches its midpoint. A lower IC50 goes with higher potency. The term stoichiometry N denotes the number of molecules, sites or subunits per partner or assembly.

Like-named read-outs stand apart in the source and are kept apart here.

Regarding `O=c1nc(NO)ccn1[C@@H]1O[C@H](CO)[C@@H](O)[C@H]1O` [NHC, N^4-hydroxycytidine], the “cryo-EM structure (2.74 Å), inward-facing state” value on bovine CNT3 (bCNT3) [1] is recorded as “This substituent interacts with S380 in the bCNT3-NHC structure”. In data set [2], this molecule displayed a 50% inhibitory concentration (IC50) of approximately 13 µM. For the molecule `C[C@@]1(F)[C@H](O)[C@@H](CO)O[C@H]1n1ccc(=O)[nH]c1=O` [PSI-6206], at bovine CNT3 (bCNT3) [3], the “cryo-EM structure (2.69 Å), inward-facing state” value was “The quality of the maps enabled unambiguous modeling of nucleoside drugs for NHC, PSI-6206, and ribavirin”. Consider `N#C[C@@]1(c2ccc3c(N)ncnn23)O[C@H](CO)[C@@H](O)[C@H]1O` [GS4, GS-441524], for which, in data set [4], the IC50 was approximately 400 µM.

`CC(C)C(=O)OC[C@H]1O[C@@H](n2ccc(NO)nc2=O)[C@H](O)[C@@H]1O` [MPV, molnupiravir]: the IC50 in data set [5] was approximately 54 µM.

B1: Bos taurus concentrative nucleoside transporter 3 (CNT3) (natural protein, UniProt F1MGR1 1-699, looked up)
chain: T1 sequence (F1MGR1 1-699)
In the case of B1, the “stoichiometry N” value in “cryo-EM structure” amounted to 3.

The record behind these values is paper PMC11625470 (Nature chemical biology, 2024).
